Reference: patent publication US12630544B2, “Compound, α-synuclein aggregate binder, and use thereof” (NATIONAL INSTITUTES FOR QUANTUM SCIENCE AND TECHNOLOGY, priority 2020, dated 2026)

Assays:
[1] = target: T1, α-synuclein aggregates (Homo sapiens, UniProt P37840); experiment: In vitro fluorescence microscope measurement, amygdala sections of DLB patient brain; parameters: α-synuclein aggregates formed in the brain of the DLB patient; from tissue; host or cells: post-mortem human brain: amygdala of DLB patient (sections or homogenate); cerebellum of MSA patient; details: 30 μM test compound
Text: (§1) Postmortem human brains were obtained in autopsies carried out with respect to a patient with dementia with Lewy bodies (DLB) and a patient with Alzheimer's disease (AD). In a cryostat (HM560, Carl Zeiss), frozen tissue from the DLB patient was sliced into sections each having a thickness of 20 μm. Brain tissue from the AD patient was fixed in 10% neutral buffered formalin, embedded in a paraffin block, and sliced into sections each having a thickness of 6 μm.
Postfixed fresh frozen sections of amygdala tissue obtained from the brain of the DLB patient and deparaffinized sections of formalin-fixed paraffin-embedded middle frontal gyrus tissue obtained from the brain of the AD patient were used. Each brain section and a 30 μM test compound were incubated in a 50% ethanol solution at room temperature for 30 minutes. Thereafter, the section was washed with a 50% ethanol solution for 5 minutes and with ultrapure water for 3 minutes. This washing was carried out twice. After the section was mounted in a mounting medium (VECTASHIELD H-1000, Vector Laboratories), an image of a lesion-enriched area on the section was obtained with use of a fluorescence microscope (DM4000, Leica, excitation wavelength: 391 nm to 437 nm). In FIG. 1, each arrowhead indicates fluorescence from the compound binding to α-synuclein aggregates in the brain of the DLB patient, each arrow indicates fluorescence from the compound binding to amyloid-β aggregates in the brain of the AD patient, and an asterisk indicates fluorescence from the compound binding to tau aggregates in the brain of the AD patient. The fluorescence intensities of lesion-enriched areas and lesion-free areas (background) were quantified with use of analysis software (Image J). Note that SPAL-T-05 and SPAL-T-06 were each used as the test compound. Note also that BF-227 (2-(2-[2-dimethylaminothiazol-5-yl]ethenyl)-6-(2-[fluoro]ethoxy)benzoxazole (catalog No.: NP039-0)) and PBB3 (2-((1E,3E)-4-(6-(methylamino)pyridin-3-yl)buta-1,3-dienyl)benzo[d]thiazol-6-ol) (catalog No.: NP039-0), each available from NARD INSTITUTE, LTD., were each used as a control compound.

[2] = target: T2, α-synuclein lesion (Mus musculus, UniProt O55042); experiment: In vivo two-photon laser scanning fluorescence microscopy of α-synuclein fibril-inoculated model mouse; details: 50 μl DMSO solution containing 0.1% compound, i.p.; excitation 900 nm
T2 construct: from tissue; host or cells: brain of C57/BL/6 mouse inoculated in the striatum with recombinant (E. coli) mouse α-synuclein fibrils; sections or living animal
Method: First, mouse α-synuclein was expressed in and extracted from E. coli as a recombinant protein, and then incubated in vitro to form insoluble α-synuclein aggregates. The α-synuclein aggregates were then inoculated into the striatum of a mouse. […] Note that the inoculation of the α-synuclein aggregates into the striatum of the mouse was carried out in the following manner. First, hair on the head of a 9-week-old C57/BL/6 male mouse which had been anesthetized with 1.5% (v/v) isoflurane was removed, and the scalp was disinfected with isodine, followed by application of xylocaine and incision in the scalp to expose the skull. Then, a hole was drilled in the skull at a position of 0.05 mm posterior to the bregma and 2 mm lateral to the midline, and 3 μl of an α-synuclein fibril solution (mouse α-synuclein fibril (4 mg/ml) in saline) was injected into a position […] ventral to the brain surface with use of a glass pipette. The scalp was then returned and sutured.
A model mouse was anesthetized with 1.5% (v/v) isoflurane 6 or more weeks after inoculation of an α-synuclein fibril solution. Then, a cranial window was placed on the model mouse in accordance with the Seylaz-Tomita method (Tomita et al. J Cereb Blood Flow Metab 25, 858-67, 2005). Two or more weeks after the placement of the cranial window, the mouse was anesthetized with 1.5% (v/v) isoflurane, and then 50 μl of a DMSO solution containing 0.1% BF-227, PBB3, SPAL-T-05, or SPAL-T-06 was intraperitoneally administered to the mouse. Thirty minutes after the administration, the mouse was fixed under a two-photon laser fluorescence microscope, 100 μl of physiological saline containing 5 mM Sulforhodamine 101 was intraperitoneally administered to the mouse, and then intravital two-photon fluorescence imaging was carried out at an excitation wavelength of 900 nm. Detection wavelengths for BF-227, PBB3, SPAL-T-05, and SPAL-T-06 were set at 500 nm to 550 nm, and a detection wavelength for Sulforhodamine 101 was set at 573 nm to 648 nm. In FIG. 4, each arrowhead indicates a blood vessel, and each arrow indicates fluorescence from the compound binding to an α-synuclein lesion.

[3] = system: tau aggregates or amyloid-β aggregates; experiment: In vitro fluorescence microscope measurement, middle frontal gyrus sections of AD patient brain; parameters: species or system human; details: 30 μM compound
Text: as §1
Postfixed fresh frozen sections of amygdala tissue obtained from the brain of the DLB patient and deparaffinized sections of formalin-fixed paraffin-embedded middle frontal gyrus tissue obtained from the brain of the AD patient were used. […] After the section was mounted in a mounting medium (VECTASHIELD H-1000, Vector Laboratories), an image of a lesion-enriched area on the section was obtained with use of a fluorescence microscope (DM4000, Leica, excitation wavelength: 391 nm to 437 nm). In FIG. 1, each arrowhead indicates fluorescence from the compound binding to α-synuclein aggregates in the brain of the DLB patient, each arrow indicates fluorescence from the compound binding to amyloid-β aggregates in the brain of the AD patient, and an asterisk indicates fluorescence from the compound binding to tau aggregates in the brain of the AD patient. […]

[4] = target: T1, α-synuclein aggregates; details: background statement, cited from earlier work

Row | SMILES | binding to α-synuclein aggregates formed in the brain of the DLB patient (fluorescence) ([1]; 50% ethanol, room temperature, 30 minutes, amygdala sections) | binding selectivity: α-synuclein aggregates (DLB brain) versus tau aggregates or amyloid-β aggregates (AD brain) ([1]; fluorescence of lesion-enriched vs lesion-free areas) | detection of / binding to α-synuclein lesions in living mouse brain (two-photon fluorescence) [2] | binding to aggregates in the brain of the AD patient (fluorescence) [3] | binding selectivity with respect to the α-synuclein aggregates ([4]; binds to amyloid-β aggregates) | binding affinity with respect to the α-synuclein aggregates [4]
1 | CN(C)c1ncc(C=Cc2nc3ccc(OCCF)cc3o2)s1 [BF-227, 2-(2-[2-dimethylaminothiazol-5-yl]ethenyl)-6-(2-[fluoro]ethoxy)benzoxazole, reference compound] | weaker than that of each of SPAL-T-06 and SPAL-T-05 | low binding selectivity | no α-synuclein lesion was detected | mainly bound to the amyloid-β aggregates | – | –
2 | CNc1ccc(/C=C/C=C/c2nc3ccc(O)cc3s2)cn1 [PBB3, 2-((1E,3E)-4-(6-(methylamino)pyridin-3-yl)buta-1,3-dienyl)benzo[d]thiazol-6-ol, reference compound] | – | – | no α-synuclein lesion was detected | – | – | –
3 | CN(C)c1ncc(C=Cc2nc3ccc(OCCF)cc3o2)s1 [[^11C]BF-227] | – | – | – | – | low binding selectivity | insufficient binding affinity
